Read-outs that look alike come from different tables or passages of the source.

Experiment [1] deals with human ACC2 (acetyl-coenzyme A carboxylase 2) (Homo sapiens, UniProt O00763). Description: Human ACC2 enzyme assay, Assay B2 (ADP-Glo).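 Also: human ACC2 activity read as ADP product, detected by luciferase glow luminescence after residual ATP removal, enzyme near 2 ng/µl in linear range, detection steps at 22 °C.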 A general note: ADP-Glo first removes unused ATP, then detects ADP through luciferase.
Experiment [2] deals with malonyl-CoA in a tumour (human MCF-7 breast cancer cells). As to the kind of experiment: Mode-of-action experiment: intratumour malonyl-CoA in MCF-7 tumours after oral administration. In kind it is in vivo, female nude mice (NMRI-nude (nu/nu)). Particulars: Mus musculus, MCF7, po; after 7 h, 10 mg/kg, vs Vehicle. As for the experimental part:
Mode-of-Action Experiment
Prior to the determination of the activity in the MCF-7 model, some of the test substances were examined in a “mode of action” experiment. The principle of this experiment is that short-term application of a test substance capable of inhibiting ACC1 and/or ACC2 in a living organism after oral administration reduces malonyl-CoA in a tumour. To this end, in the experiment 2 million human MCF-7 breast cancer cells were injected subcutaneously into female nude mice (NMRI-nude (nu/nu) mice, Taconic M&B A/S, 1 day beforehand administration of a pellet for the release of oestrogen over a period of at least 60 days). Once the tumour extended to an area of about 60-70 mm^2, the test substance was administered orally over a period of 1-3 days, and at defined points in time the intratumour content of malonyl-CoA was then determined and compared to the vehicle control. The method is described in Anal Chem 2008 Aug. 1; 80(15):5736-42. Epub 2008 Jul. 9.).

In a further experiment the test system is MCF7. As to the kind of experiment: Cell proliferation assay (CellTiter-Glo, 96 h), MCF7. In kind it is cell-based. Conditions: Homo sapiens. An outline of the steps: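 Cells seeded 2000-5000/well, treated next day and incubated 96 h at 37° C; viability by CellTiter-Glo luminescence. t=0 luminescence subtracted from 96 h values for treated and untreated wells; percent growth inhibition derived relative to controls.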

The target of experiment [3] is T1, human ACC1 (acetyl-coenzyme A carboxylase alpha transcript variant 1) (Homo sapiens, UniProt Q13085).
T1 construct: FLAG (C); made in house; host or cells: baculovirus-infected insect cells (Hi5)
Description: Human ACC1 enzyme assay, Assay B1 (ADP-Glo). In kind it is biochemical.
Description: Essentially, the enzyme activity is measured by quantifying the adenosine diphosphate (ADP) formed as a byproduct of the enzyme reactions using the ADP-Glo™ detection system from Promega. In this test, initially the adenosine triphosphate (ATP) not consumed in the enzyme reaction is converted quantitatively with an adenylate cyclase (“ADP-GLO reagent”) into cAMP, the adenylate cyclase is then stopped and (“kinase detection reagent”) the ADP formed is subsequently converted into ATP, which is converted in a luciferase-based reaction into a glow luminescence signal.
The concentration of the hACC1 was adapted to the respective activity of the enzyme and adjusted such that the assay operated in the linear range. […] The amount of light emitted was taken as a measure for the amount of ADP formed and thus for the enzyme activity of the hACC1.

Experiment [4] addresses acetyl-CoA carboxylase 2 (ACC2) (Homo sapiens, UniProt O00763). Description: Human ACC2 enzyme assay, Assay A2 (HTRF ADP immunoassay).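 Also: ADP generated by ACC2 quantified via competitive time-resolved FRET between europium cryptate anti-ADP antibody and d2-tagged ADP, enzyme kept in linear range near 0.6 ng/µl.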 A general note: In TR-FRET formats the signal depends on donor and acceptor labels being close together.
Description: The inhibitory activity of the substances of this invention with regard to acetyl-CoA carboxylase 2 (ACC2) was measured using the ACC2 assay described in the paragraphs below. The basic principle of the assay is the measurement of adenosine diphosphate (ADP), which is formed as a by-product, by means of an HTRF®-based competitive immunoassay (HTRF=Homogeneous Time Resolved Fluorescence).
The amount of complex of d2-labelled ADP and europium cryptate-labelled anti-ADP antibody was then determined by measuring the resonance energy transfer of europium cryptate to d2.
The target of another experiment is recombinant human ACC1 (Homo sapiens, UniProt Q13085). As to the kind of experiment: Human ACC1 enzyme assay, Assay A1 (HTRF ADP immunoassay).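 Also: ADP generated by the enzyme quantified via competitive time-resolved FRET, read as europium cryptate to d2 energy transfer after 1 h at 22 °C with labelled ADP tracer and anti-ADP antibody.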
[5] abbreviates: MCF7, Table 7, 96-hour incubation.
Setting [6] is: Assay B1, read-out: ACC 1 (=B1) IC50.

acetyl-CoA carboxylase 2 (ACC2), sequence (O00763 39-2458 limits assumed): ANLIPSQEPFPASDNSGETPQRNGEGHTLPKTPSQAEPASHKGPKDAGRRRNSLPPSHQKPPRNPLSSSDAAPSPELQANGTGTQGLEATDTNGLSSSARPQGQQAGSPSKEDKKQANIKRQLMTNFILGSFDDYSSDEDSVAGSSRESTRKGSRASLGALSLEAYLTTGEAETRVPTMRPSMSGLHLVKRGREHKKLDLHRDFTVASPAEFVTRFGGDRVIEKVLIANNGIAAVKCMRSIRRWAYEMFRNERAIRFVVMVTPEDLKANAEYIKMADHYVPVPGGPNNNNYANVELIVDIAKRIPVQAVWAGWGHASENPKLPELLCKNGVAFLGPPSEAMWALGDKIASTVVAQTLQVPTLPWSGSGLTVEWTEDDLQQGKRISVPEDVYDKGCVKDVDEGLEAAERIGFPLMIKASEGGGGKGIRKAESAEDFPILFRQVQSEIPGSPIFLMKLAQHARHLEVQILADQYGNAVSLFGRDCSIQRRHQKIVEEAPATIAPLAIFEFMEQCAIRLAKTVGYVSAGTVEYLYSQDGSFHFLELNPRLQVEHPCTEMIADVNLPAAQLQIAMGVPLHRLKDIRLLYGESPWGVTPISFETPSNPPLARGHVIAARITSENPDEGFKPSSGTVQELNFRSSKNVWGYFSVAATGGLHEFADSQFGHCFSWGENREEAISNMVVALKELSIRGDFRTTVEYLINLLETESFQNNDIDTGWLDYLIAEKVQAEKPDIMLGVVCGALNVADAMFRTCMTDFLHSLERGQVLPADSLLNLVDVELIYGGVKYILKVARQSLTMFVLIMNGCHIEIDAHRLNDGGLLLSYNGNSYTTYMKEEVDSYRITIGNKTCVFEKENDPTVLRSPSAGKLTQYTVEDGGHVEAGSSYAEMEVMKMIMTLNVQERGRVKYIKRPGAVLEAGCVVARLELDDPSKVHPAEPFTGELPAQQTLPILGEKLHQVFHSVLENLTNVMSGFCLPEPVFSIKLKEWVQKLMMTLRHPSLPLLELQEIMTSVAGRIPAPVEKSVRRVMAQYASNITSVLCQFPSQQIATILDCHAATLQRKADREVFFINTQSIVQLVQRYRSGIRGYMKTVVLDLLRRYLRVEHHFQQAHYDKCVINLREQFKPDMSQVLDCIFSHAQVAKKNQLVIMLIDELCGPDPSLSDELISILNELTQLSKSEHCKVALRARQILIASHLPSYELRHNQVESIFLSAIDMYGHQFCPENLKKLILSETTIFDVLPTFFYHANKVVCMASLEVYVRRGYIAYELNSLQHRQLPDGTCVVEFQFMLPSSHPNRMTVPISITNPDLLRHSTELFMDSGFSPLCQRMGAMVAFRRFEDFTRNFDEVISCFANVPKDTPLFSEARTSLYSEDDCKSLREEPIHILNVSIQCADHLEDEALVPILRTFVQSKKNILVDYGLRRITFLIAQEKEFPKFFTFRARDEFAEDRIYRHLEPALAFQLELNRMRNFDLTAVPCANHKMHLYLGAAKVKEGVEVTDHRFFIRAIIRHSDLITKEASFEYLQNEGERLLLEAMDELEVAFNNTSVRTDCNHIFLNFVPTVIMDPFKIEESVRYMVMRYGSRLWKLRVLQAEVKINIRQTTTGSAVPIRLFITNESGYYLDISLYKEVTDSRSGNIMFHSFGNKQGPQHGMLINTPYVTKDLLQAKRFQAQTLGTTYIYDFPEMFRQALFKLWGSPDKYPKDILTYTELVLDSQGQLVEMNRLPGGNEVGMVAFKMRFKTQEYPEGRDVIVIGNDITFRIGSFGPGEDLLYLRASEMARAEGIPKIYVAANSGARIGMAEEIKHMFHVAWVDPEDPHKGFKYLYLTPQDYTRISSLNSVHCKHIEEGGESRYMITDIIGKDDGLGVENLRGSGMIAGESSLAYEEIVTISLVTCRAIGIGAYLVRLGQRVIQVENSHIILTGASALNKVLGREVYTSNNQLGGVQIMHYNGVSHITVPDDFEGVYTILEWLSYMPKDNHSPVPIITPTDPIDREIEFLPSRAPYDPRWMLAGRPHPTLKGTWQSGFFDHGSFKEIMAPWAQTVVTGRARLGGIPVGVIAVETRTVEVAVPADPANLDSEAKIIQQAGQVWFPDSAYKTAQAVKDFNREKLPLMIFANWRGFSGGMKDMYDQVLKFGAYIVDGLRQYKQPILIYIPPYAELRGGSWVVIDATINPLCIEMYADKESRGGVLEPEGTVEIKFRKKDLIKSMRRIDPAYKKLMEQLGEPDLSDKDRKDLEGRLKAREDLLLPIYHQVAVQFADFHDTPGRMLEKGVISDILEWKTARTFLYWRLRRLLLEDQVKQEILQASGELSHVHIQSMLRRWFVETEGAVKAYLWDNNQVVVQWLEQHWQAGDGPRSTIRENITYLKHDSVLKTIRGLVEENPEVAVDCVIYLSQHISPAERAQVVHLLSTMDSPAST
human ACC2 (acetyl-coenzyme A carboxylase 2), sequence (O00763 27-2458 limits assumed): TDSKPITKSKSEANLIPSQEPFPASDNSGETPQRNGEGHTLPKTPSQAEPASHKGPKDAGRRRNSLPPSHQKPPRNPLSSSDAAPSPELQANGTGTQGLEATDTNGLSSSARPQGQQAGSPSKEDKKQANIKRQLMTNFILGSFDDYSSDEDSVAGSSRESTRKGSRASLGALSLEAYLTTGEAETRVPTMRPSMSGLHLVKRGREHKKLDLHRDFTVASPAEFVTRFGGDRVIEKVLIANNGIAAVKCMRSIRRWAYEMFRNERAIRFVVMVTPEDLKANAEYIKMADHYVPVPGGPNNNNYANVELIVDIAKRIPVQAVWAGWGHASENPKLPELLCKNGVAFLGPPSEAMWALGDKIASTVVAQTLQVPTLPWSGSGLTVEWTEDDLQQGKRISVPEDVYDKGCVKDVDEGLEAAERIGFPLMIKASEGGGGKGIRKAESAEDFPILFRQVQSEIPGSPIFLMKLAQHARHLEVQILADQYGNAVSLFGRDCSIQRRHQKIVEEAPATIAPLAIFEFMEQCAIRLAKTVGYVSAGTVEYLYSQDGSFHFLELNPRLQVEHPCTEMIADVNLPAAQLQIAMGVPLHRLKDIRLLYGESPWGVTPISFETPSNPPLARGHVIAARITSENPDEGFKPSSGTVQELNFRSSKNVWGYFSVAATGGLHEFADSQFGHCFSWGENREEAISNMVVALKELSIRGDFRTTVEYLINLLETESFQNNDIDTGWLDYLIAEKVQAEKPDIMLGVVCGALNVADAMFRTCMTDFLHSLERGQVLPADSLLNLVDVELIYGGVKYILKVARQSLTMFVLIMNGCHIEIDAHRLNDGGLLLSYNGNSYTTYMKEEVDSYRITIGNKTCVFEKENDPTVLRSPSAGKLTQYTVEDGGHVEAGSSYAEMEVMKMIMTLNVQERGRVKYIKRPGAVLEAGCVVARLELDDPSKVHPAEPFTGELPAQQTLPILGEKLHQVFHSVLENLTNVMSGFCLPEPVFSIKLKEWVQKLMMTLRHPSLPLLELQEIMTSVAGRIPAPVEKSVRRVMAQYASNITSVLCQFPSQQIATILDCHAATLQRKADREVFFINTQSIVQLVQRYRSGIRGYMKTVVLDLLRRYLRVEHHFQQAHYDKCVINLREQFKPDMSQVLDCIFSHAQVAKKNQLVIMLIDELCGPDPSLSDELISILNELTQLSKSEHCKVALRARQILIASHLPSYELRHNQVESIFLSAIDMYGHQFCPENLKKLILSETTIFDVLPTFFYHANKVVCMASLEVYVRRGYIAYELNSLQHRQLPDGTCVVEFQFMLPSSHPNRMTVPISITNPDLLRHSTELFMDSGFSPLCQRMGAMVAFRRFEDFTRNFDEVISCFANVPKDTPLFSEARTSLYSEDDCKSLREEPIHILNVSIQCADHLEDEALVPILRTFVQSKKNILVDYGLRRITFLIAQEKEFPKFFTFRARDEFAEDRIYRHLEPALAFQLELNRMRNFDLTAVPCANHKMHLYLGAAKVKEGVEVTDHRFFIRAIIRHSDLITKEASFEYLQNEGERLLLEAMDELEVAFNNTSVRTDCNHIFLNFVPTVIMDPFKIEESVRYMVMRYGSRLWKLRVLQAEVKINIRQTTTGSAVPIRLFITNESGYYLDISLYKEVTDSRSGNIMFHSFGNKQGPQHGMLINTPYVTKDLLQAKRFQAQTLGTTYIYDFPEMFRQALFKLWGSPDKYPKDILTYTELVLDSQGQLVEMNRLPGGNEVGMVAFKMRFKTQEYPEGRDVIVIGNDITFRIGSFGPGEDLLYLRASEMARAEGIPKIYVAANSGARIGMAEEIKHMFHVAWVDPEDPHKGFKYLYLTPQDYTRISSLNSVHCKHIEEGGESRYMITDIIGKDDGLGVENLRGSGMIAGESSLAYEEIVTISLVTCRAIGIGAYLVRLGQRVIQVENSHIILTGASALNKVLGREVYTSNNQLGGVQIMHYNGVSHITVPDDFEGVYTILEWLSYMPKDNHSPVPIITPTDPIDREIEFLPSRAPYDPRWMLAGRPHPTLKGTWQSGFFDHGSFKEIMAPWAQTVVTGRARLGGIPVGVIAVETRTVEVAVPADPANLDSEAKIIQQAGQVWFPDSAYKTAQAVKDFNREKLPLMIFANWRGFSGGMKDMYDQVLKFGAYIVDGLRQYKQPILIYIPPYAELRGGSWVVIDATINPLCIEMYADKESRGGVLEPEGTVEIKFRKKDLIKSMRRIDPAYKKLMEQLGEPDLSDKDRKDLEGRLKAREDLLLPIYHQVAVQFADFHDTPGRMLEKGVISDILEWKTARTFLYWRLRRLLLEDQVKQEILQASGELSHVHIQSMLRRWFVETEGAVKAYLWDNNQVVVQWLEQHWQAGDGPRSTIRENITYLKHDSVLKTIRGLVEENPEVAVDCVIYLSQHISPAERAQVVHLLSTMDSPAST
Description for recombinant human ACC1: The inhibitory activity of the substances of this invention with regard to acetyl-CoA carboxylase 1 (ACC1) was measured using the ACC1 assay described in the paragraphs below. The basic principle of the assay is the measurement of adenosine diphosphate (ADP), which is formed as a by-product, by means of an HTRF®-based competitive immunoassay (HTRF=Homogeneous Time Resolved Fluorescence).
Typical concentrations were in the range of 2.5 ng/μl.
The amount of complex between d2-labelled ADP and europium cryptate-labelled anti-ADP antibody was then determined by measuring the resonance energy transfer from the europium cryptate to d2.

By IC50 is commonly meant the concentration at which inhibition is half-maximal. A word on the inhibition in vivo: it is the percentage by which the read-out fell short of the control. Lower therefore signals a weak effect. For `CO[C@H]1CC[C@]2(CC1)NC(=O)C(c1cc(-c3ccc(Cl)cc3)ccc1C)=C2O` [1-2, (5s,8s)-3-(4′-chloro-4-methylbiphenyl-3-yl)-4-hydroxy-8-methoxy-1-azaspiro[4.5]dec-3-en-2-one], the IC50 is 0.822 µM in experiment [1] and 0.057 µM with MCF7 (setting [5]). The molecule also displayed an inhibition in vivo at 10 mg/kg in experiment [2] of 96%.

Take `Cc1ccc(-c2ccc(Cl)cc2)cc1C1=C(O)C2(CCCOC2)NC1=O` (centres unmarked) [1-5, 3-(4′-chloro-4-methylbiphenyl-3-yl)-4-hydroxy-7-oxa-1-azaspiro[4.5]dec-3-en-2-one]: the IC50 in experiment [1] stood at 11 µM; in experiment [3] (setting [6]), 0.246 µM; in the experiment on MCF7 (setting [5]), 0.23 µM. In addition, the inhibition in vivo at 10 mg/kg in experiment [2] was 82%.

As to `COC1CCC2(CC1)NC(=O)C(c1cc(-c3ccc(Cl)cc3)c(C)cc1C)=C2O` (centres unmarked) [1-7, 3-(4′-chloro-4,6-dimethylbiphenyl-3-yl)-4-hydroxy-8-methoxy-1-azaspiro[4.5]dec-3-en-2-one], the IC50 is 0.328 µM in experiment [1], 1.46 µM in experiment [3] and 0.057 µM in the experiment with MCF7 (setting [5]). The same molecule displayed an inhibition in vivo at 10 mg/kg in experiment [2] of 89%.

Consider `COC1CCC2(CC1)NC(=O)C(c1cc(-c3ccc(Cl)cc3)ccc1Cl)=C2O` (centres unmarked) [1-11, 3-(4,4′-dichlorobiphenyl-3-yl)-4-hydroxy-8-methoxy-1-azaspiro[4.5]dec-3-en-2-one], for which the figures for the IC50 (in experiment [1]; in experiment [3]; with MCF7 (setting [5])) were 4.47 µM, 0.157 µM and 0.124 µM, respectively. The same molecule showed an inhibition in vivo at 10 mg/kg in experiment [2] of 87%.

For the molecule `Cc1ccc(-c2ccc(Cl)cc2)cc1C1=C(O)C2(CCC(C)(C)CC2)NC1=O` [1-20, 3-(4′-chloro-4-methylbiphenyl-3-yl)-4-hydroxy-8,8-dimethyl-1-azaspiro[4.5]dec-3-en-2-one], the IC50 was 1.13 µM in experiment [1], 0.23 µM in experiment [3] (setting [6]) and 0.04 µM with MCF7 (setting [5]). The molecule also had an inhibition in vivo at 10 mg/kg in experiment [2] of 87%.

As to `Cc1ccc(-c2ccc(Cl)cc2)cc1C1=C(O)C2(CCC(C(C)C)CC2)NC1=O` (centres unmarked) [1-24, 3-(4′-chloro-4-methylbiphenyl-3-yl)-4-hydroxy-8-(propan-2-yl)-1-azaspiro[4.5]dec-3-en-2-one], the IC50 in experiment [1] was 0.517 µM; in experiment [3] (setting [6]), 0.23 µM; with MCF7 (setting [5]), 0.027 µM. This molecule also returned an inhibition in vivo at 10 mg/kg in experiment [2] of 91%.

Consider `Cc1ccc(-c2ccc(Cl)cc2)c(C)c1C1=C(O)[C@]2(CC[C@H](OCC(F)(F)F)CC2)NC1=O` [1-30, (5s,8s)-3-(4′-chloro-2,4-dimethylbiphenyl-3-yl)-4-hydroxy-8-(2,2,2-trifluoroethoxy)-1-azaspiro[4.5]dec-3-en-2-one], for which the IC50 in experiment [1] was 0.976 µM; in experiment [3] (setting [6]), 0.481 µM; in the experiment with MCF7 (setting [5]), 0.048 µM. In addition, at 10 mg/kg the inhibition in vivo in experiment [2] was 82%.

`Cc1ccc(-c2ccc(F)c(F)c2)cc1C1=C(O)C2(CCC3(CCCO3)CC2)NC1=O` (centres unmarked) [1-35, 11-(3′,4′-difluoro-4-methylbiphenyl-3-yl)-12-hydroxy-1-oxa-9-azadispiro[4.2.4.2]tetradec-11-en-10-one]: the IC50 in experiment [1] came out at 6.91 µM; in experiment [3], 0.388 µM; in the experiment on MCF7 (setting [5]) it was 0.094 µM. Also, 10 mg/kg produced 31% inhibition in vivo in experiment [2].

`COCC1CCC2(CC1)NC(=O)C(c1c(C)ccc(-c3ccc(Cl)cc3)c1C)=C2O` (centres unmarked) [1-53, 3-(4′-chloro-2,4-dimethylbiphenyl-3-yl)-4-hydroxy-8-(methoxymethyl)-1-azaspiro[4.5]dec-3-en-2-one]: the IC50 in experiment [1] came to 0.632 µM; in experiment [3] it was 0.243 µM; with MCF7 (setting [5]) it was 0.07 µM. Further, the inhibition in vivo at 10 mg/kg in experiment [2] was found to be 43%.

Consider `COCC1CCC2(CC1)NC(=O)C(c1cc(-c3ccc(Cl)cc3)ccc1Cl)=C2O` (centres unmarked) [1-54, 3-(4,4′-dichlorobiphenyl-3-yl)-4-hydroxy-8-(methoxymethyl)-1-azaspiro[4.5]dec-3-en-2-one], for which the IC50 in experiment [1] came out at 1.35 µM; in experiment [3], 0.157 µM; with MCF7 (setting [5]), 0.088 µM. The molecule also gave an inhibition in vivo at 10 mg/kg in experiment [2] of 61%.

Turning to `Cc1ccc(-c2ccc(Cl)cc2)cc1C1=C(O)[C@]2(CC[C@H](C)CC2)NC1=O` [1-76, 3-(4′-chloro-4-methylbiphenyl-3-yl)-4-hydroxy-8-methyl-1-azaspiro[4.5]dec-3-en-2-one], the IC50 in experiment [1] was found to be 0.432 µM; in experiment [3] (setting [6]) it was 0.163 µM. In experiment [2], this molecule yielded an inhibition in vivo at 10 mg/kg of 96%.

Regarding `CO[C@H]1CC[C@]2(CC1)NC(=O)C(c1cc(-c3ccc(F)c(F)c3)ccc1C)=C2O` [1-136, (5s,8s)-3-(3′,4′-Difluoro-4-methylbiphenyl-3-yl)-4-hydroxy-8-methoxy-1-azaspiro[4.5]dec-3-en-2-one], the IC50 came out at 6.49 µM in experiment [4]; 0.239 µM on recombinant human ACC1; 12.5 µM in experiment [1]; 0.233 µM in experiment [3]; 0.156 µM in the experiment with MCF7 (setting [5]).

On to `O=C1N[C@]2(CCC[C@H](C(F)(F)F)C2)C(O)=C1c1cc(-c2ccc(Cl)cc2)ccc1Cl` [1-137, (5S,7S)-3-(4,4′-Dichlorobiphenyl-3-yl)-4-hydroxy-7-(trifluoromethyl)-1-azaspiro[4.5]dec-3-en-2-one], for which the IC50 in experiment [4] came to 7.75 µM; at recombinant human ACC1, 0.307 µM; in experiment [1], 7.49 µM; in experiment [3], 0.168 µM; in the experiment on MCF7 (setting [5]), 0.439 µM.

As for `CC1(C)CCC2(CC1)NC(=O)C(c1cc(-c3ccc(Cl)cc3)ccc1Cl)=C2O` [1-138, 3-(4,4′-Dichlorobiphenyl-3-yl)-4-hydroxy-8,8-dimethyl-1-azaspiro[4.5]dec-3-en-2-one], the IC50 was 0.633 µM in experiment [4]; 0.262 µM on recombinant human ACC1; 2.19 µM in experiment [1]; 0.172 µM in experiment [3]; 0.054 µM in the experiment with MCF7 (setting [5]).

Regarding `CC1CCC2(CC1)NC(=O)C(c1cc(-c3ccc(Cl)cc3)ccc1Cl)=C2O` (centres unmarked) [1-139, 3-(4,4′-Dichlorobiphenyl-3-yl)-4-hydroxy-8-methyl-1-azaspiro[4.5]dec-3-en-2-one], the IC50 amounted to 0.605 µM in experiment [4]; 0.28 µM on recombinant human ACC1; 4.55 µM in experiment [1]; 0.153 µM in experiment [3]; 0.07 µM with MCF7 (setting [5]).

Take `CC(C)[C@H]1CC[C@]2(CC1)NC(=O)C(c1cc(-c3ccc(Cl)cc3)ccc1Cl)=C2O` [1-141, (5s,8s)-3-(4,4′-Dichlorobiphenyl-3-yl)-4-hydroxy-8-isopropyl-1-azaspiro[4.5]dec-3-en-2-one]: the IC50 in experiment [4] stood at 0.625 µM; at recombinant human ACC1, 0.247 µM; in experiment [1], 1.38 µM; in experiment [3], 0.161 µM; in the experiment with MCF7 (setting [5]) it was 0.079 µM.

As to `CO[C@H]1CC[C@]2(CC1)NC(=O)C(c1cc(-c3ccc(Cl)cc3F)ccc1C)=C2O` [1-142, (5s,8s)-3-(4′-Chloro-2′-fluoro-4-methylbiphenyl-3-yl)-4-hydroxy-8-methoxy-1-azaspiro[4.5]dec-3-en-2-one], the IC50 in experiment [4] was determined as 0.551 µM; on recombinant human ACC1 it was 0.337 µM; in experiment [1] it was 0.957 µM; in experiment [3], 0.704 µM; in the experiment with MCF7 (setting [5]) it was 0.106 µM.

For the molecule `CO[C@H]1CC[C@]2(CC1)NC(=O)C(c1cc(-c3ccc(Cl)cc3Cl)ccc1C)=C2O` [1-143, (5s,8s)-3-(2′,4′-Dichloro-4-methylbiphenyl-3-yl)-4-hydroxy-8-methoxy-1-azaspiro[4.5]dec-3-en-2-one], the IC50 in experiment [4] amounted to 1.02 µM; at recombinant human ACC1, 0.282 µM; in experiment [1] it was 2.15 µM; in experiment [3] it was 0.161 µM; with MCF7 (setting [5]) it was 0.111 µM.

For the molecule `CCO[C@H]1CC[C@]2(CC1)NC(=O)C(c1cc(-c3ccc(Cl)cc3)ccc1C)=C2O` [1-146, (5s,8s)-3-(4′-Chloro-4 methylbiphenyl-3-yl)-8-ethoxy-4-hydroxy-1-azaspiro[4.5]dec-3-en-2-one], the IC50 is 0.455 µM in experiment [4]; 0.197 µM on recombinant human ACC1; 0.679 µM in experiment [1]; 0.115 µM in experiment [3] (setting [6]); 0.047 µM in the experiment with MCF7 (setting [5]).

On to `CCO[C@H]1CC[C@@]2(CC1)NC(=O)C(c1cc(-c3ccc(Cl)cc3)ccc1C)=C2O` [1-147, (5r,8r)-3-(4′-Chloro-4 methylbiphenyl-3-yl)-8-ethoxy-4-hydroxy-1-azaspiro[4.5]dec-3-en-2-one], for which the IC50 is 1.25 µM in experiment [4]; 0.195 µM on recombinant human ACC1; 2.03 µM in experiment [1]; 0.15 µM in experiment [3] (setting [6]); 0.174 µM with MCF7 (setting [5]).

As for `CCCOC1CCC2(CC1)OC(=O)C(c1cc(-c3ccc(Cl)cc3)c(C)cc1C)=C2O` (centres unmarked) [2-47, 3-(4′-chloro-4,6-dimethylbiphenyl-3-yl)-4-hydroxy-8-propoxy-1-oxaspiro[4.5]dec-3-en-2-one], the IC50 in experiment [4] came out at 0.453 µM; on recombinant human ACC1, 0.592 µM; in experiment [1] it was 0.389 µM; in experiment [3] (Assay B1, ADP-Glo, read-out: ACC 1 (=B1) IC50) it was 0.402 µM; in the experiment on MCF7 (MCF7 cells), 0.302 µM.

These data come from US20130040935A1, “CYCLIC KETO-ENOLS FOR THERAPY” (BAYER INTELLECTUAL PROPERTY GMBH, priority 2010, published 2013).
